From patent US20120202787A1, “Novel Heteroaryl Imidazoles And Heteroaryl Triazoles As Gamma-Secretase Modulators” (Pfizer Inc., priority 2009, published 2012)

Tested on: γ-secretase (production of amyloid beta protein Aβ (1-42))
Assay: Cell-based γ-secretase assay with ELISA readout (Aβ (1-42) production)
Parameters: species or system human WT-APP overexpressing CHO cells
Conditions: human WT-APP overexpressing CHO cells; Aβ (1-42) ELISA; about 24 hours at 37° C.; free base or salt; read-out: Aβ 42B IC50 (μM) (Geometric Mean of 2-8 Determinations)
Protocol: Cell-Based γ-Secretase Assay with ELISA Readout
The ability of compounds to modulate production of amyloid beta protein Aβ (1-42) was determined using human WT-APP overexpressing CHO cells. Cells were plated at 22,000 cells/100 μL well in 96 well tissue culture treated, clear plates (Falcon) in DMEM/F12 based medium and incubated for 24 hours at 37° C. Compounds for testing were diluted in 100% DMSO to achieve an eleven points, half log, dose response for IC50 determinations. Compounds were added in fresh medium to achieve 1% final DMSO. Appropriate vehicle and inhibitor controls were added to obtain maximum and minimum inhibition values for the assay before the plates were incubated for about 24 hours at 37° C.
Coating of ELISA assay plates was initiated by addition of 50 μL/well of an in-house Aβ (1-42) specific antibody at (4 μg/mL) in 0.1 M NaHCO3 (pH 9.0) into black 384-well Maxisorp® plates (Nunc) and incubated overnight at 4° C. The capture antibody was then aspirated from the ELISA assay plates and 100 μL/well of Blocking Buffer (Dulbecco's PBS, 1.5% BSA (Sigma A7030)) added. Ambient temperature incubation was allowed to proceed for a minimum of two hours before washing 2×100 μL with Wash Buffer (Dulbecco's PBS, 0.05% Tween 20). Assay Buffer (Dulbecco's PBS, 1.0% BSA (Sigma A7030), 0.05% Tween 20) 20 μL/well was then added.
After incubation overnight at 37° C., 5% CO2, 40 μL (in duplicate) of experimental conditioned media were transferred into wells of the blocked ELISA plates containing the capture antibody, followed by overnight incubation at 4° C. Cell toxicity was measured in the corresponding cells after removal of the media for the Aβ (1-42) assay by a colorimetric cell proliferation assay (CellTiter 96® AQueous One Solution Cell Proliferation Assay, Promega) according to the manufacturer's instructions.
After overnight incubation of the ELISA assay plates at 4° C., unbound Aβ peptides were removed thorough (4×100 μL) washes with Wash Buffer. Europium (Eu) labeled (custom labeled, Perkin Elmer) Aβ (1-16) 6e10 Monoclonal Antibody (Covance #SIG-39320 was added, (50 μL /well Eu-6e10 @ 1:5000, 20 uM EDTA) in Assay Buffer. Incubation at ambient temperature for a minimum of 2 hours was followed by (4×100 μL) washes with Wash Buffer, before 50 μL/well of Delfia Enhancement Solution (Perkin Elmer) was added. Following a one hour ambient temperature incubation, the plates were read on an EnVision plate reader (Perkin Elmer) using standard DELFIA TRF settings. Data analysis including inhibitory IC50 determination was performed using nonlinear regression fit analysis (in-house software) and the appropriate plate mean values for the maximum and minimum inhibition controls.

| SMILES | IC50 [µM] |
| --- | --- |
| Cc1cn(-c2ccc(C(=O)NCC3(c4cccc(C(F)(F)F)c4)CCOCC3)cn2)cn1 [Example 1, 6-(4-Methyl-1H-imidazol-1-yl)-N-({4-[3-(trifluoromethyl)phenyl]tetrahydro-2H-pyran-4-yl}methyl)nicotinamide] | 13.6 |
| COc1nc(C(=O)NCc2cccc(C(F)(F)F)c2)cnc1-n1cnc(C)c1 [Example 4, 6-Methoxy-5-(4-methyl-1H-imidazol-1-yl)-N-[3-(trifluoromethyl)benzyl]pyrazine-2-carboxamide] | 1.75 |
| COc1nc(C(=O)N2CC[C@H](Oc3ccccc3C(F)(F)F)C2)cnc1-n1cnc(C)c1 [Example 8, 3-methoxy-2-(4-methyl-1H-imidazol-1-yl)-5-({(3S)-3-[2-(trifluoromethyl)-phenoxy]pyrrolidin-1-yl}carbonyl)pyrazine] | 0.535 |
| COc1nc(C(=O)N2CC[C@@H](Oc3ccccc3C(F)(F)F)C2)cnc1-n1cnc(C)c1 [Example 9, 3-methoxy-2-(4-methyl-1H-imidazol-1-yl)-5-({(3R)-3-[2-(trifluoromethyl)-phenoxy]pyrrolidin-1-yl}carbonyl)pyrazine] | 0.643 |
| COc1nc(C(=O)NCCc2nc3ccc(Cl)cc3o2)cnc1-n1cnc(C)c1 [Example 12, N-[2-(6-chloro-1,3-benzoxazol-2-yl)ethyl]-6-methoxy-5-(4-methyl-1H-imidazol-1-yl)pyrazine-2-carboxamide] | 1.43 |
| COc1nc(C(=O)NCC(C)(C)c2ccc(F)cc2)cnc1-n1cnc(C)c1 [Example 13, N-[2-(4-fluorophenyl)-2-methylpropyl]-6-methoxy-5-(4-methyl-1H-imidazol-1-yl)pyrazine-2-carboxamide] | 1.36 |

Second part, the compound after the results:

| IC50 [µM] | SMILES |
| --- | --- |
| 2.29 | COc1nc(C(=O)NCC2(c3ccccc3)CCCC2)cnc1-n1cnc(C)c1 [Example 2, 6-Methoxy-5-(4-methyl-1H-imidazol-1-yl)-N-[(1-phenylcyclopentyl)methyl]pyrazine-2-carboxamide] |
| 0.186 | COc1nc(C(=O)NCC2(c3ccc(Cl)cc3)CC2)ccc1-n1cnc(C)c1 [Example 3, N-{[1-(4-Chlorophenyl)cyclopropyl]methyl}-6-methoxy-5-(4-methyl-1H-imidazol-1-yl)pyridine-2-carboxamide] |
| 0.34 | COc1nc(C(=O)NCC2(c3ccc(F)cc3)CC2)ccc1-n1cnc(C)c1 [Example 5, N-{[1-(4-Fluorophenyl)cyclopropyl]methyl}-6-methoxy-5-(4-methyl-1H-imidazol-1-yl)pyridine-2-carboxamide] |
| 1.3 | COc1nc(C(=O)NCC2(c3ccc(F)cc3)CC2)cnc1-n1cnc(C)c1 [Example 6, N-{[1-(4-Fluorophenyl)cyclopropyl]methyl}-6-methoxy-5-(4-methyl-1H-imidazol-1-yl)pyrazine-2-carboxamide] |
| 0.591 | COc1nc(C(=O)NCC2(c3ccc(Cl)cc3)CC2)cnc1-n1cnc(C)c1 [Example 7, N-{[1-(4-Chlorophenyl)cyclopropyl]methyl}-6-methoxy-5-(4-methyl-1H-imidazol-1-yl)pyrazine-2-carboxamide] |
| 0.827 | COc1nc(C(=O)NCC2(c3cccc(C)c3)CCC2)cnc1-n1cnc(C)c1 [Example 10, 6-methoxy-5-(4-methyl-1H-imidazol-1-yl)-N-{[1-(3-methylphenyl)cyclobutyl]-methyl}pyrazine-2-carboxamide] |
| 1.38 | COc1nc(C(=O)NCC2(c3ccc(F)cc3)CCC2)cnc1-n1cnc(C)c1 [Example 11, N-{[1-(4-fluorophenyl)-cyclobutyl]methyl}-6-methoxy-5-(4-methyl-1H-imidazol-1-yl)pyrazine-2-carboxamide] |
| 1.45 | COc1nc(C(=O)NCC2(c3ccc(Cl)cc3)CCCC2)cnc1-n1cnc(C)c1 [Example 14, N-{[1-(4-chlorophenyl)cyclopentyl]methyl}-6-methoxy-5-(4-methyl-1H-imidazol-1-yl)pyrazine-2-carboxamide] |
